Patent US7384656B2, “Anti-allergy composition and related method” (Access Business Group International LLC, priority 2004, dated 2008)

Experiments:
[1] = tested on: allergic response to allergen extracts (cat dander, pollen and grass); experiment: Clinical study with Nasal Allergen Challenge (NAC): symptom scores and sneeze counts; type: in vivo, human
Procedure: To test the efficacy of an embodiment of the composition in inhibiting an allergic response, a comparative clinical study was conducted on human subjects. This clinical study consisted of testing twenty subjects for positive allergic reaction to allergen extracts (cat dander, pollen and grass). The subjects were then randomized to receive: a control, specifically a placebo; loratadine, a known anti-histamine drug, sold under the trademark CLARITIN, and a composition of the above embodiments including Picao preto, Acerola, and Cinnamon (referred to herein as the Blend). Each of these were administered to the subjects in three doses a day for two days before receiving a Nasal Allergen Challenge (NAC), which is a commonly used test for predicting real-life efficacy of allergen treatments. Specifically, Claritin was administered in an amount of 10 mg per dose; the placebo in an amount of 450 mg per dose; and the Blend in an amount of 450 mg per dose, that dose for the Blend including 150 mg Picao preto; 150 mg Acerola and 150 mg Cinnamon. Other suitable Cinnamon levels are in the range of about 25 mg to about 650 mg; suitable Picao preto levels are in the range of 25 to about 650 mg; and suitable Acerola levels are in the range of about 25 mg to about 650 mg.
(§1) During the NAC, subjects had […] increasing doses of allergen (0 (water was administered), 50, 250, 1250, and 6250 Bioequivalent Allergy Units/ml (BAU/ml)) squirted up their noses over a period of two hours. Bioequivalent Allergy Units were calculated using ID50EAL testing (Intradermal Dilution for 50 mm Sum of Erythema Determines Bioequivalent Allergy Units) (Turkeltaub PC, Biological standardization of allergenic extracts. Allergol Immunopathol (Madr). 1989, 17:53-65.
To analyze the allergy treatment effects of the Blend, Claritin and the placebo, a composite measurement of blockage, secretion and sneezing was determined. The smallest clinically meaningful difference in allergy treatment effects has been determined to be about a 0.5 score step on an 0 to 9 scale of the composite measurement of blockage, secretion and sneezing. Akerlund, A. et al, Clinical Trial Design, Nasal Allergen Challenge Models and Considerations of relevance to Pediatrics, Nasal Polyposis and Different Classes of Medication. J. Allergy. Clin. Imm., 115 (3.2): S460-482 (March 2005). Measurements used in connection determining blockage, secretion and sneezing were the Nasal Symptoms Score, the Pruritus-Rhinorrhea-Conjunctivitis Score, and sneeze counting, respectively.
The allergic symptoms of the twenty subjects were measured ten minutes after each exposure to the with an eleven-point Nasal Symptom Scale, (on a scale of 1-11, 11 being the most symptoms observed), which is common to the NAC, to establish the Nasal Symptom Score. The subjects also underwent the nasal lavage to collect supernatants which were assayed for allergic reaction and inflammatory mediators: prostaglandin D2; Leukotriene […]; and tryptase.
After the NAC, subjects were released, but continued rating their symptoms every two hours for eight hours using the Nasal Symptom Scale, as well as a 15-point Pruritus-Rhinorrhea-Conjunctivitis Scale, which is a common scale that is intended to be more sensitive than the Nasal Symptom Scale. On this scale, Pruritus, Rhinorrhea, and Conjunctivitis were each rated as none, mild, mild to moderate, moderate, moderate to severe, or severe, scored 0, 1, 2, 3, 4, or 5 points respectively, with a maximum total of 15 points for all three together. In addition, during the eight hour period, the subjects counted and recorded the number of their sneezes within each two-hour period to establish a sneeze count. […]

Prostaglandin D2 = experiment: Allergic mediators in nasal fluid (nasal lavage) before and after NAC; type: in vivo, human; conditions: before versus after administration of allergens
Procedure: To test the efficacy of an embodiment of the composition in inhibiting an allergic response, a comparative clinical study was conducted on human subjects. This clinical study consisted of testing twenty subjects for positive allergic reaction to allergen extracts (cat dander, pollen and grass). The subjects were then randomized to receive: a control, specifically a placebo; loratadine, a known anti-histamine drug, sold under the trademark CLARITIN, and a composition of the above embodiments including Picao preto, Acerola, and Cinnamon (referred to herein as the Blend). […]
as §1
The allergic symptoms of the twenty subjects were measured ten minutes after each exposure to the with an eleven-point Nasal Symptom Scale, (on a scale of 1-11, 11 being the most symptoms observed), which is common to the NAC, to establish the Nasal Symptom Score. […]

[2] = tested on: IgE receptor (FcεRIα) on RBL-2H3 cells; experiment: IgE receptor expression on RBL-2H3 cells (anti-FcεRIα cell ELISA normalized to MTT viability); type: cell-based
Procedure: The methodology used to obtain the results of FIG. 1 will now be described. First, RBL-2H3 cells, available from ATCC (American Type Culture Collection) of Manassas, Va., were plated in 96 well plates at 3×10^4/well. Following adherence to the wells, the cells were exposed to the sample combinations of ingredients listed in Table I, each combination referred to as a “sample.” Stock solutions of all samples were prepared in a solution of DMSO, ethanol, and water present in a ratio of 5:3:2 at 100 mg/ml. […] Duplicate plates of each sample were prepared so that viability could be determined multiple times for each sample, with the results of the multiple samples averaged following treatment of the cells. The plates were incubated an additional 48 hours. To measure IgE-receptor expression, the cells were fixed for 2 hours with 1% gluteraldehyde. Following fixation, the cells were washed twice with PBS-Tween 20 (0.01%), available from Aldrich of Milwaukee, Wis. Protein binding sites were blocked for 2 hours with 2% non-fat dry milk in PBS (Phosphate Buffer Saline buffered at pH 7.3). The cells were washed twice. The primary antibody, Rabbit anti-FcεRIα, available from Upstate Group, Inc., Lake Placid, N.Y., was added to the wells and diluted 1:4000 with 0.2% BSA (Bovine Serum Albumin). Following a 2 hour incubation, the wells were washed 5× with PBS-Tween 20 (0.01%) solutions. The secondary antibody, Goat anti-rabbit IgG-peroxidase, available from Sigma-Aldrich of St. Louis, Mo., was added to the wells at 1:20000 with 0.2% BSA. Following a 1 hour incubation the wells were washed five times. 100 μliters (microliters) of TMB (3,3′,5,5±Tetramethyl benzidine dihydrochloride) Substrate, available from Chemicon International of Temecula, Calif., was added to the wells. Subsequent color development was stopped by the addition of a sufficient amount, H2SO4 (for example, 100 μliters at 1 Normal). For each of the multiple samples of the combination, the OD450 (Optical Density measured at a wavelength of 450 nanometers) was read on a plate reader. Continuing with a description of the methodology to obtain the data in FIG. 1, the viability of the cells was next determined by incubating the cells in the second plate with MTT in a concentration of 1 mg/ml for 3 hours. The reduced MTT was extracted with 70% isopropanol and the OD540 (Optical Density at a wavelength of 540 nanometers) was read for each of the multiple samples.

[3] = tested on: IgE secretion by U266 human myeloma cells; experiment: IgE secretion by U266 human myeloma cells (IgE ELISA of supernatants); type: cell-based; conditions: varying concentrations
Procedure: The methodology used to obtain the results of FIG. 3 will now be described. First, U266 human myeloma cells, available from ATCC of Manassas, Va. were plated in 96 well plates at 4×10^4/well. The cells were exposed to the sample combinations of ingredients listed in Table I, each combination referred to as a “sample.” Stock solutions of all samples were prepared in a solution of DMSO, ethanol, and water present in a ratio of 5:3:2 at 100 mg/ml. Each sample was then diluted to 100 μg/ml in media. Duplicate plates of each sample were prepared so that viability could be determined multiple times for each sample, with the results of the multiple samples averaged following treatment of the cells. The plates were incubated an additional 48 hours. Thereafter, the amount of IgE in the supernatants was measured using a conventional quantitative IgE ELISA kit available from Bethyl Laboratories of Montgomery, Tex. Next, the measured OD450 data from the IgE ELISA was inputted into a calibration graph, illustrated in FIG. 4, to determine the concentration of IgE in ng/ml in each supernatant. This calibration graph was generated by measuring the OD450 of multiple, known concentrations (in nanograms per ml) of purified IgE. As shown in the graph, the X-axis indicates the concentrations of the IgE in ng/ml; and the Y-axis indicates the OD450 derived from each of the concentrations. The line 100 connects the data points, while line 110 is a trend line corresponding to the equation in this particular embodiment of: Y=0.2909X−0.2527 Equation 1 With the IgE calibration graph, the amount of IgE for each sample was determined, and the subsequent data was input into FIG. 3 for comparative analysis.

[4] = tested on: histamine release, RBL-2H3 cells; experiment: Histamine release from IgE-sensitized, DNP-BSA stimulated RBL-2H3 cells (ELISA); type: cell-based; conditions: 10 ng/ml
Procedure: The methodology used to obtain the results of FIG. 9 will now be described. First, RBL-2H3 cells, available from ATCC (American Type Culture Collection) of Manassas, Va., were plated in 24 well plates at 5×10^4/well. Following adherence, the cells were exposed to the ingredients or combination of ingredients noted in FIG. 9, also referred to as samples. The samples were used at the concentrations noted in Table VI. Stock solutions of all samples were prepared in a solution of DMSO, ethanol, and water present in a ratio of 5:3:2 at 100 mg/ml. Each sample was then diluted in media to the final concentration. The cells were then incubated overnight with the samples. The following day a mouse anti-dinitrophenyl (DNP) IgE antibody, available from Sigma of St. Louis, Mo., was added to the cells at a final concentration of 1 ng/ml. The cells were incubated for 1.5 hr at 37° C. to allow binding of the IgE molecule to the cellular IgE receptor via the constant region of the antibody. Following this incubation period, the cells were washed twice. A solution containing DNP conjugated to BSA (DNP-BSA), available from Calbiochem of San Diego, Calif., was added to the cells at 0.5 ng/ml. The cells were incubated an additional 1 hr at 37° C. The supernatants were assayed for the presence of histamine, PGD2 and/or LTC4 using ELISA kits commercially available from Cayman Chemical of Ann Arbor, Mich. according to the manufacturer's specifications. Next, the measured OD450 data from the ELISA was inputted into a calibration graph to determine the amount by which histamine was reduced relative to an untreated control sample. An example of a histamine calibration graph is illustrated in FIG. 10. Suffice it to say that calibration graphs for PGD2 and LTC4 are similar. The calibration graph in FIG. 10 was generated by measuring the OD450 of multiple, known concentrations of purified histamine. As shown in the graph, the X-axis indicates the concentrations of the histamine in nanomolar; and the Y-axis indicates the OD450 derived from each of the concentrations. The line 120 connects the data points, while line 130 is a trend line corresponding to the equation in this particular embodiment of: Y=−0.0025X^2+0.2915X+2.0775 Equation 2 With the histamine calibration graph, the amount of histamine for each sample was determined, and the subsequent data was input into Table VI and FIG. 9 for comparative analysis.

[5] = tested on: PGD2 release, RBL-2H3 cells; experiment: PGD2 release from IgE-sensitized, DNP-BSA stimulated RBL-2H3 cells (ELISA); type: cell-based; conditions: 1 μg/ml
Procedure: (§2) The methodology used to obtain the results of FIG. 9 will now be described. First, RBL-2H3 cells, available from ATCC (American Type Culture Collection) of Manassas, Va., were plated in 24 well plates at 5×10^4/well. Following adherence, the cells were exposed to the ingredients or combination of ingredients noted in FIG. 9, also referred to as samples. The samples were used at the concentrations noted in Table VI. Stock solutions of all samples were prepared in a solution of DMSO, ethanol, and water present in a ratio of 5:3:2 at 100 mg/ml. Each sample was then diluted in media to the final concentration. The cells were then incubated overnight with the samples. The following day a mouse anti-dinitrophenyl (DNP) IgE antibody, available from Sigma of St. Louis, Mo., was added to the cells at a final concentration of 1 ng/ml. The cells were incubated for 1.5 hr at 37° C. to allow binding of the IgE molecule to the cellular IgE receptor via the constant region of the antibody. Following this incubation period, the cells were washed twice. A solution containing DNP conjugated to BSA (DNP-BSA), available from Calbiochem of San Diego, Calif., was added to the cells at 0.5 ng/ml. […] Next, the measured OD450 data from the ELISA was inputted into a calibration graph to determine the amount by which histamine was reduced relative to an untreated control sample. […]

[6] = tested on: LTC4 release, RBL-2H3 cells; experiment: LTC4 release from IgE-sensitized, DNP-BSA stimulated RBL-2H3 cells (ELISA); type: cell-based; conditions: 0.1 μg/ml
Procedure: as §2

[7] = immediate phase (two hours during the NAC)

## CCOC(=O)N1CCC(=C2c3ccc(Cl)cc3CCc3cccnc32)CC1 [Claritin, loratadine]
[1]; delayed phase, at six hours and overall, Blend 450 mg per dose, Claritin 10 mg
  Nasal Symptom Scores versus placebo: significantly fewer
[1]; delayed phase, at two hours
  Nasal Symptom Score versus placebo (FIG. 15): trends toward significantly fewer symptoms
[1]; [7]
  PRC score versus the Blend: lower PRC score
  sneezes versus the Blend: fewer sneezes
[1]; immediate phase (two hours during the NAC), Claritin 10 mg per dose
  Nasal Symptom Score versus the Blend: lower Nasal Symptom Score
[1]; total product effect over eight hours
  Nasal Symptom Score Areas Over the Curve versus placebo (FIG. 18): significantly better than the placebo
Prostaglandin D2
  change of Prostaglandin D2 in nasal fluid after the NAC (FIG. 19): significant rise

## O=C1O[C@H]([C@@H](O)CO)C(O)=C1O [Vitamin C]
[2]; 200 micrograms per milliliter
  decrease in IgE receptor expression (FIG. 5): 15%
[2]; varying concentrations
  effect on IgE receptor expression, in words (FIG. 5): significant effect
[3]
  inhibition of IgE secretion, in words (FIG. 6): inhibited IgE secretion

## O=C(/C=C/c1ccc(O)c(O)c1)O[C@H](Cc1ccc(O)c(O)c1)C(=O)O [Rosmarinic acid]
[4]
  Percent Control of Histamine Release (Table VI): 9.3%
[5]
  Percent Control of PGD2 Release (Table VI): 94%
[6]
  Percent Control LTC4 Release (Table VI): 120%
